From PubChem BioAssay AID1259407 (Chemical Carcinogenesis Research Information System (CCRIS), 2018)
Calls of active or inactive are those of the source. How the calls were made is not given here.

Test system: CCRIS mutagenicity, Ames/micronucleus/aberration tests
Assay: CCRIS mutagenicity studies
[1] = Test System: AMES SALMONELLA TYPHIMURIUM, Strain/Indicator: TA100, Metabolic Activation: NONE, Method: STANDARD PLATE
[2] = Test System: AMES SALMONELLA TYPHIMURIUM, Strain/Indicator: TA100, Metabolic Activation: RAT, LIVER, S-9, AROCLOR 1254, Method: STANDARD PLATE
[3] = Test System: MOUSE LYMPHOMA, Strain/Indicator: L5178Y (TK+/TK-), Metabolic Activation: RAT, LIVER, S-9, AROCLOR 1254, Method: SUSPENSION/PLATE

SMILES: C[C@H](CCC(=O)O)[C@H]1CC[C@H]2[C@@H]3CC[C@@H]4C[C@H](O)CC[C@]4(C)[C@H]3CC[C@]12C
- mutagenic call (Test System: AMES SALMONELLA TYPHIMURIUM, Strain/Indicator: TA97, Metabolic Activation: HAMSTER, LIVER, S-9, AROCLOR 1254 (10 OR 30%), Method: PREINCUBATION): inactive; negative
- mutagenic call (Test System: AMES SALMONELLA TYPHIMURIUM, Strain/Indicator: TA97, Metabolic Activation: NONE, Method: PREINCUBATION): inactive; negative
- mutagenic call (Test System: AMES SALMONELLA TYPHIMURIUM, Strain/Indicator: TA97, Metabolic Activation: RAT, LIVER, S-9, AROCLOR 1254 (10%), Method: PREINCUBATION): inactive; negative
- mutagenic call (Test System: AMES SALMONELLA TYPHIMURIUM, Strain/Indicator: TA97, Metabolic Activation: RAT, LIVER, S-9, AROCLOR 1254 (30%), Method: PREINCUBATION): inactive; negative
- mutagenic call (Test System: AMES SALMONELLA TYPHIMURIUM, Strain/Indicator: TA98, Metabolic Activation: HAMSTER, LIVER, S-9, AROCLOR 1254 (10 OR 30%), Method: PREINCUBATION): inactive; negative
- mutagenic call (Test System: AMES SALMONELLA TYPHIMURIUM, Strain/Indicator: TA98, Metabolic Activation: NONE, Method: FLUCTUATION TEST): inactive; negative
- mutagenic call (Test System: AMES SALMONELLA TYPHIMURIUM, Strain/Indicator: TA98, Metabolic Activation: NONE, Method: PREINCUBATION): inactive; negative
- mutagenic call (Test System: AMES SALMONELLA TYPHIMURIUM, Strain/Indicator: TA98, Metabolic Activation: RAT, LIVER, S-9, AROCLOR 1254 (10%), Method: PREINCUBATION): inactive; negative
- mutagenic call (Test System: AMES SALMONELLA TYPHIMURIUM, Strain/Indicator: TA98, Metabolic Activation: RAT, LIVER, S-9, AROCLOR 1254 (30%), Method: PREINCUBATION): inactive; negative
- mutagenic call (Test System: AMES SALMONELLA TYPHIMURIUM, Strain/Indicator: TA98, Method: PREINCUBATION): inactive; negative
- mutagenic call (Test System: AMES SALMONELLA TYPHIMURIUM, Strain/Indicator: TA100, Metabolic Activation: HAMSTER, LIVER, S-9, AROCLOR 1254 (10 OR 30%), Method: PREINCUBATION): inactive; negative
- mutagenic call (Test System: AMES SALMONELLA TYPHIMURIUM, Strain/Indicator: TA100, Metabolic Activation: NONE, Method: FLUCTUATION TEST): inactive; negative
- mutagenic call (Test System: AMES SALMONELLA TYPHIMURIUM, Strain/Indicator: TA100, Metabolic Activation: NONE, Method: PREINCUBATION): inactive; negative
- mutagenic call [1]: inactive; negative
- mutagenic call (Test System: AMES SALMONELLA TYPHIMURIUM, Strain/Indicator: TA100, Metabolic Activation: RAT, LIVER, S-9, AROCLOR 1254 (10%), Method: PREINCUBATION): inactive; negative
- mutagenic call (Test System: AMES SALMONELLA TYPHIMURIUM, Strain/Indicator: TA100, Metabolic Activation: RAT, LIVER, S-9, AROCLOR 1254 (30%), Method: PREINCUBATION): inactive; negative
- mutagenic call [2]: inactive; negative
- mutagenic call (Test System: AMES SALMONELLA TYPHIMURIUM, Strain/Indicator: TA1535, Metabolic Activation: HAMSTER, LIVER, S-9, AROCLOR 1254 (10 OR 30%), Method: PREINCUBATION): inactive; negative
- mutagenic call (Test System: AMES SALMONELLA TYPHIMURIUM, Strain/Indicator: TA1535, Metabolic Activation: NONE, Method: PREINCUBATION): inactive; negative
- mutagenic call (Test System: AMES SALMONELLA TYPHIMURIUM, Strain/Indicator: TA1535, Metabolic Activation: RAT, LIVER, S-9, AROCLOR 1254 (10%), Method: PREINCUBATION): inactive; negative
- mutagenic call (Test System: AMES SALMONELLA TYPHIMURIUM, Strain/Indicator: TA1535, Metabolic Activation: RAT, LIVER, S-9, AROCLOR 1254 (30%), Method: PREINCUBATION): inactive; negative
- mutagenic call (Test System: E. COLI, Strain/Indicator: WP2 UVRA, Metabolic Activation: HAMSTER, LIVER, S-9, AROCLOR 1254, Method: STANDARD PLATE): inactive; negative
- mutagenic call (Test System: E. COLI, Strain/Indicator: WP2 UVRA, Metabolic Activation: HAMSTER, LIVER, S-9, Method: STANDARD PLATE): inactive; negative
- mutagenic call (Test System: E. COLI, Strain/Indicator: WP2 UVRA, Metabolic Activation: MOUSE, LIVER, S-9, AROCLOR 1254, Method: STANDARD PLATE): inactive; negative
- mutagenic call (Test System: E. COLI, Strain/Indicator: WP2 UVRA, Metabolic Activation: MOUSE, LIVER, S-9, Method: STANDARD PLATE): inactive; negative
- mutagenic call (Test System: E. COLI, Strain/Indicator: WP2 UVRA, Metabolic Activation: NONE, Method: STANDARD PLATE): inactive; negative
- mutagenic call (Test System: E. COLI, Strain/Indicator: WP2 UVRA, Metabolic Activation: RAT, LIVER, S-9, AROCLOR 1254, Method: STANDARD PLATE): inactive; negative
- mutagenic call (Test System: E. COLI, Strain/Indicator: WP2 UVRA, Metabolic Activation: RAT, LIVER, S-9, Method: STANDARD PLATE): inactive; negative
- mutagenic call [3]: inactive; negative
- mutagenic call (Test System: MOUSE LYMPHOMA, Strain/Indicator: L5178Y (TK+/TK-), Metabolic Activation: RAT, LIVER, S-9, Method: SUSPENSION/PLATE): inactive; negative

SMILES: c1ccc2c(c1)CCCC2
- mutagenic call (Test System: AMES SALMONELLA TYPHIMURIUM, Strain/Indicator: TA98, Metabolic Activation: HAMSTER, LIVER, S-9, AROCLOR 1254, Method: STANDARD PLATE): inactive; negative
- mutagenic call (Test System: AMES SALMONELLA TYPHIMURIUM, Strain/Indicator: TA98, Metabolic Activation: NONE, Method: STANDARD PLATE): inactive; negative
- mutagenic call (Test System: AMES SALMONELLA TYPHIMURIUM, Strain/Indicator: TA98, Metabolic Activation: RAT, LIVER, S-9, AROCLOR 1254, Method: STANDARD PLATE): inactive; negative
- mutagenic call (Test System: AMES SALMONELLA TYPHIMURIUM, Strain/Indicator: TA100, Metabolic Activation: HAMSTER, LIVER, S-9, AROCLOR 1254, Method: STANDARD PLATE): inactive; negative
- mutagenic call [1]: inactive; negative
- mutagenic call [2]: inactive; negative
- mutagenic call (Test System: AMES SALMONELLA TYPHIMURIUM, Strain/Indicator: TA1535, Metabolic Activation: HAMSTER, LIVER, S-9, AROCLOR 1254, Method: STANDARD PLATE): inactive; negative
- mutagenic call (Test System: AMES SALMONELLA TYPHIMURIUM, Strain/Indicator: TA1535, Metabolic Activation: NONE, Method: STANDARD PLATE): inactive; negative
- mutagenic call (Test System: AMES SALMONELLA TYPHIMURIUM, Strain/Indicator: TA1535, Metabolic Activation: RAT, LIVER, S-9, AROCLOR 1254, Method: STANDARD PLATE): inactive; negative
- mutagenic call (Test System: AMES SALMONELLA TYPHIMURIUM, Strain/Indicator: TA1537, Metabolic Activation: HAMSTER, LIVER, S-9, AROCLOR 1254, Method: STANDARD PLATE): inactive; negative
- mutagenic call (Test System: AMES SALMONELLA TYPHIMURIUM, Strain/Indicator: TA1537, Metabolic Activation: NONE, Method: STANDARD PLATE): inactive; negative
- mutagenic call (Test System: AMES SALMONELLA TYPHIMURIUM, Strain/Indicator: TA1537, Metabolic Activation: RAT, LIVER, S-9, AROCLOR 1254, Method: STANDARD PLATE): inactive; negative
- mutagenic call (Test System: AMES SALMONELLA TYPHIMURIUM, Strain/Indicator: TA1538, Metabolic Activation: HAMSTER, LIVER, S-9, AROCLOR 1254, Method: STANDARD PLATE): inactive; negative
- mutagenic call (Test System: AMES SALMONELLA TYPHIMURIUM, Strain/Indicator: TA1538, Metabolic Activation: NONE, Method: STANDARD PLATE): inactive; negative
- mutagenic call (Test System: AMES SALMONELLA TYPHIMURIUM, Strain/Indicator: TA1538, Metabolic Activation: RAT, LIVER, S-9, AROCLOR 1254, Method: STANDARD PLATE): inactive; negative
- mutagenic call [3]: active; positive. reevaluation of results: equivocal
